Measurements reported in patent US20250082633A1, “COMPOUNDS AND METHODS FOR MODULATING SPLICING” (REMIX THERAPEUTICS INC., priority 2021, published 2025).

Assays:
[1] = tested on: HiBiT-tagged MYB protein in K562 cells; assay: HiBit protein abundance assay, MYB; format: cell-based, human; conditions: K562 HiBiT-modified cells, 24 hours, luminescence
Procedure: (§1) Compounds described herein were used to screen for effects on quantitative protein abundance using a HiBit assay system (Promega). Quantitative protein abundance was determined by measuring the protein levels of HiBit-tagged protein targets expressed in cell culture via luminescence using the Nano-Glo HiBiT Lytic Detection System, which uses a split complementation assay format to reconstitute NanoBiT enzyme to generate a luminescent signal. A protein abundance assay was developed such that endogenous protein targets could be modified with the HiBiT peptide tag and their abundance could be assessed after compound treatment. Briefly, K562 cell lines containing a HiBiT-modification were treated with various compounds described herein (e.g., compounds of Formulas (I), (II), or (III)). After treatment for 24 hours, the protein abundance of a specific target was determined by measuring luminescence. • Promega Nano-Glo HiBiT Lytic Detection System (cat #N3030) • Corning 384-well TC-treated microplates (cat #3570) • Synthego Engineered Cells Knock-In Clones [table] Cells were maintained in IMDM with 10% FBS. Before the assay, cells were diluted with phenolphthalein-free growth media (IMDM+1% FBS media) and were seeded in a 384-well plate at a density of 10000 cells/well (for each cell line listed in Table 6). Each compound was prepared as a 10-point 3-fold serial dilution in DMSO with the top dose at a final concentration of 10 μM in the well. Unmodified K562 cells were added at the previously specified density with DMSO to serve as an assay baseline and positive control (PC) and DMSO only with the respective modified cell lines was added to the negative control (NC) columns. Final DMSO concentration was kept at or below 0.25%. Treated cell plates were placed in an incubator at 37° C. with 5% CO2 for 24 hours. After 24 hours, 25 μL of Complete HiBit Lytic reagent was added to each well at room temperature (e.g. one plate requiring 10 mL Lytic Buffer, 100 μL LgBiT Protein, 200 μL Lytic Substrate), shaken for 5 minutes at 600 RPM, then left to sit for 10 minutes for signal to stabilize before reading on a Spark Cyto plate reader (Tecan) with a 500 ms measurement time. To determine compound effects on protein abundance of each target in Table 6, the percent response for each respective cell line was calculated at each compound concentration as follows: For the normalized response at each concentration, a four-parameter logistical regression was fit to the data and the response was interpolated at the 50% value to determine a concentration for protein abundance at 50% (IC50) the untreated control.

Target C = assay: HiBit protein abundance assay, Target C; format: cell-based; conditions: Homo sapiens; K562 HiBiT-modified cells, 24 hours, luminescence
Procedure: as §1, with “Clones” for “Clones [table]”

Row | Compound | IC50 [1] | IC50 (Target C)
1 | Cc1c(O)c(-c2ccc3nn(C4CCNCC4)nc3n2)cc2cn(C)nc12 [Compound 113, 2,7-dimethyl-5-[2-(4-piperidyl)triazolo[4,5-b]pyridin-5-yl]indazol-6-ol] | 1 to 10 µM | 1 to 10 µM
2 | Cn1cc2cc(-c3cc(Cl)c4nn(C5CCNCC5)cc4n3)c(O)cc2n1 [Compound 141] | > 10 µM | > 10 µM
3 | COc1cc2nn(C3CCNCC3)cc2cc1-c1cc(C)c2nc(C)cn2n1 [Compound 159, 6-(6-methoxy-2-(piperidin-4-yl)-2H-indazol-5-yl)-2,8-dimethylimidazo[1,2-b]pyridazine] | > 10 µM | > 10 µM
4 | Cc1cc(-c2cc(F)c3nn(C4CCNCC4)cc3c2)cc2cn(C)nc12 [Compound 133, 5-(2,7-dimethylindazol-5-yl)-7-fluoro-2-(4-piperidyl)indazole] | 0.1 to 1 µM | < 0.1 µM
5 | Cc1c(O)c(-c2ccc3nn(C4CCNCC4)cc3n2)cc2cn(C)nc12 [Compound 109, 2,7-dimethyl-5-[2-(4-piperidyl)pyrazolo[4,3-b]pyridin-5-yl]indazol-6-ol] | 0.1 to 1 µM | < 0.1 µM
6 | Cn1cc2cc(-c3cc(F)c4nn(C5CCNCC5)nc4c3)cc(F)c2n1 [Compound 103, 4-fluoro-6-(7-fluoro-2-methyl-indazol-5-yl)-2-(4-piperidyl) benzotriazole] | 1 to 10 µM | 0.1 to 1 µM
7 | Cc1cn2nc(-c3cc(O)c4nn(C5CCNCC5)cc4c3)cc(C)c2n1 [Compound 156, 5-(2,8-dimethylimidazo[1,2-b]pyridazin-6-yl)-2-(piperidin-4-yl)-2H-indazol-7-ol] | 1 to 10 µM | 1 to 10 µM
8 | Cc1nc2c(F)cc(-c3cc(F)c4nn(C5CCNCC5)cc4c3)cc2o1 [Compound 136, 4-fluoro-6-[7-fluoro-2-(4-piperidyl)indazol-5-yl]-2-methyl-1,3-benzoxazole] | 0.1 to 1 µM | < 0.1 µM
9 | COC1=C(C)C2N=C(C)OC2C=C1c1cc(F)c2nn(C3CCNCC3)cc2n1 (stereo not shown) [Compound 144] | 1 to 10 µM | 1 to 10 µM

The next lines start with the values.

Row | IC50 [1] | IC50 (Target C) | Compound
10 | < 0.1 µM | < 0.1 µM | Cc1cn2nc(-c3cc(F)c4nn([C@H]5CCNC6(CC6)C5)cc4c3)cc(C)c2n1 [Compound 172]
11 | 0.1 to 1 µM | < 0.1 µM | Cc1cn2nc(-c3cc(F)c4nn(C5CCNC6(CCC6)C5)cc4c3)cc(C)c2n1 (stereo not shown) [Compound 189, 6-[2-(5-azaspiro[3.5]nonan-8-yl)-7-fluoro-indazol-5-yl]-2,8-dimethyl-imidazo[1,2-b]pyridazine]
12 | 0.1 to 1 µM | 0.1 to 1 µM | Cc1cn2nc(-c3cc4cn(C5CCNCC5)nc4cn3)cc(C)c2n1 [Compound 147, 2,8-dimethyl-6-[2-(4-piperidyl)pyrazolo[3,4-c]pyridin-5-yl]imidazo[1,2-b]pyridazine]
13 | 0.1 to 1 µM | 0.1 to 1 µM | Cn1cc2cc(-c3cc(F)c4nn(C5CCNC6(CC6)C5)cc4c3)cc(F)c2n1 (stereo not shown) [Compound 108, 2-(4-azaspiro[2.5]octan-7-yl)-7-fluoro-5-(7-fluoro-2-methyl-indazol-5-yl)indazole]
14 | 0.1 to 1 µM | < 0.1 µM | Cc1cn2nc(-c3cc(F)c4nn(C5CCN(C)CC5)cc4c3)cc(C)c2n1 [Compound 150, 6-[7-fluoro-2-(1-methyl-4-piperidyl)indazol-5-yl]-2,8-dimethyl-imidazo[1,2-b]pyridazine]
